Measured values published in US20160151444A1, “METHODS FOR THE PREVENTION OR TREATMENT OF VESSEL OCCLUSION INJURY” (Stealth Peptides International, Inc., priority 2009, published 2016).
Non-standard residues stand in square brackets, D forms with d. No end group written: not given here.

What was measured:
[1] = system: several mammalian cell types; conditions: energy-independent manner; Zhao et al. 2003; cited from earlier work
[2] = system: New Zealand white rabbits; test: Rabbit model of acute myocardial ischemia and reperfusion (coronary occlusion), infarct size by histomorphometry; type: in vivo
Protocol: New Zealand white rabbits were used in this study. The rabbits were males and >10 weeks in age. Environmental controls in the animal rooms were set to maintain temperatures of 61° to 72° F. and relative humidity between 30% and 70%. Room temperature and humidity were recorded hourly, and monitored daily. There were approximately 10-15 air exchanges per hour in the animal rooms. Photoperiod was 12-hr light/12-hr dark (via fluorescent lighting) with exceptions as necessary to accommodate dosing and data collection. Routine daily observations were performed. Harlan Teklad, Certified Diet (2030C), rabbit diet was provided approximately 180 grams per day from arrival to the facility. In addition, fresh fruits and vegetables were given to the rabbit 3 times a week.
The peptide D-Arg-2′6′-Dmt-Lys-Phe-NH2 (sterile lyophilized powder) was used as the test article. Dosing solutions were formulated at no more than 1 mg/ml, and were delivered via continuous infusion (IV) at a constant rate (e.g., 50 μL/kg/min). Normal saline (0.9% NaCl) was used as a control.
The test/vehicle articles were given intravenously, under general anesthesia, in order to mimic the expected route of administration in the clinical setting of AMI and PTCA. Intravenous infusion was administered via a peripheral vein using a Kd Scientific infusion pump (Holliston, Mass. 01746) at a constant volume (e.g., 50 μL/kg/min).
The study followed a predetermined placebo and sham controlled design. In short, 10-20 healthy, acclimatized, male rabbits were assigned to one of three study arms (approximately 2-10 animals per group). Arm A (n=10, CTRL/PLAC) includes animals treated with vehicle (vehicle; VEH, IV); Arm B (n=10, treated) includes animals treated with peptide; Arm C (n=2, SHAM) includes sham-operated time-controls treated with vehicle (vehicle; VEH, IV) or peptide.
In all cases, treatments were started approximately 10 min after the onset of a 30 min ischemic insult (coronary occlusion) and continued for up to 3 h following reperfusion. In all cases, cardiovascular function was monitored both prior to and during ischemia, as well as for up to 180 min (3 h) post-reperfusion. The experiments were terminated 3 h post-reperfusion (end of study); irreversible myocardial injury (infarct size by histomorphometery) at this time-point was evaluated, and was the primary-end-point of the study.
General anesthesia was induced intramuscularly (IM) with a ketamine (˜35-50 mg/kg)/xylazine (˜5-10 mg/kg) mixture. A venous catheter was placed in a peripheral vein (e.g., ear) for the administration of anesthetics. In order to preserve autonomic function, anesthesia was maintained with continuous infusions of propofol (˜8-30 mg/kg/hour) and ketamine (˜1.2-2.4 mg/kg/hr). A cuffed tracheal tube was placed via a tracheotomy (ventral midline incision) and used to mechanically ventilate the lungs with a 95% O2/5% CO2 mixture via a volume-cycled animal ventilator (˜40 breaths/minute with a tidal volume of −12.5 ml/kg) in order to sustain PaCO2 values broadly within the physiological range.
Once a surgical plane of anesthesia was reached, either transthoracic or needle electrodes forming two standard ECG leads (e.g., lead II, aVF, V2) were placed. A cervical cut-down exposed a carotid artery, which was isolated, dissected free from the surrounding tissue and cannulated with a dual-sensor high-fidelity micromanometer catheter (Millar Instruments); the tip of this catheter was advanced into the left-ventricle (LV) retrogradely across the aortic valve, in order to simultaneously determine aortic (root, proximal transducer) and left-ventricular (distal transducer) pressures. The carotid cut-down also exposed the jugular vein, which was cannulated with a hollow injection catheter (for blood sampling). Finally, an additional venous catheter was placed in a peripheral vein (e.g., ear) for the administration of vehicle/test articles. […]

[3] = system: subjects with STEMI and hypertension; test: EMBRACE STEMI trial, subjects with anterior STEMI undergoing PCI; hypertensive subgroup compared; type: in vivo, human
Protocol: The EMBRACE STEMI study is known in the art (see e.g., Chakrabarti et al., Am Heart J, 165(4):509-514 (2013), the content of which is incorporate by reference in its entirety). Briefly, the EMBRACE STEMI trial is a multicenter, randomized, double-blind, placebo-controlled study. The study design was approved by institutional and national regulatory bodies and ethical committees. Multiple safety reviews were performed by an independent Data and Safety Monitoring Board throughout the course of the trial. All subjects provided written informed consent prior to randomization.
Subjects aged 18 to 85 years with anterior STEMI undergoing first-time percutaneous coronary intervention (PCI) plus stenting with an anticipated time from ischemic symptoms to time of balloon inflation <4 hours, with >0.1 mV ST-segment elevation in at least 2 contiguous precordial leads were enrolled. Major exclusion criteria included a history of prior myocardial infarction (MI), previous heart failure (e.g., known left ventricle ejection fraction (LVEF)<30% prior to the qualifying infarct), and cardiogenic shock.
To assess efficacy in large MIs that had not sustained reperfusion injury, only subjects who met angiographic and post-PCI inclusion criteria were included in the primary analysis population (PAP) (FIG. 7): (1) the presence of a proximal/mid left anterior descending (LAD) occlusion with pre-PCI TIMI flow 0 or 1 and no visible evidence of significant coronary collateral flow; (2) dilation of only the LAD; (3) successful PCI of the LAD with post-PCI TIMI flow >2; and (4) no evidence of a second MI within 72 hours of the initial PCI which would confound the infarct size determination.
Subjects were randomized in a double blind 1:1 fashion to receive either D-Arg-2′,6′-Dmt-Lys-Phe-NH2 of at 0.05 mg/kg/hr or a control placebo by IV injection (Treatment group: n=58; Control group: n=60). D-Arg-2′,6′-Dmt-Lys-Phe-NH2 was administered >15 minutes, but <60 minutes prior to PCI and for 1 hour following reperfusion. Subjects underwent cardiac magnetic resonance imaging (MRI) at 4±1 days and again at 30±7 days post-PCI. Follow-up visits were conducted at discharge, at 30±7 days, 90±14 days, and 6±1.5 months post-PCI.
The primary end point of the study was infarct size, or the area under the curve (AUC) of creatine kinase-MB (CK-MB) enzyme over 72 hours following PCI with the values log transformed and adjusted for the percent of artery distal to the occlusion and duration of symptoms (two variables known to confound the estimation of infarct size).19-21 Secondary end points included the AUCO-72 of troponin I, peak cardiac enzymes, the ratio of the volume of infarcted myocardium (late contrast gadolinium enhancement) to the left ventricular (LV) mass on cardiac Mill at day 4±1, day 30±7, and the change (4) in ratios from day 4±1 to day 30±7, measures of myocardial structure and function (left ventricular ejection fraction (LVEF), left ventricular end systolic volume (LVESV), and left ventricular end diastolic volume (LVEDV)) at day 4±1, day 30±7, and the change (4) in these measures from day 4±1 to day 30±7, TIMI myocardial perfusion grade (TMPG), TIMI flow grade (TFG), corrected TIMI frame count post-PCI and complete ST-segment elevation resolution (>70%) by the Schroder criteria. Laboratory measures of congestive heart failure (CHF) (N-terminal pro-B type natriuretic […]), and renal function (serum creatinine, estimated glomerular filtration rate, cystatin C, and blood urea nitrogen) were also evaluated.
The incidence of the clinical composite endpoint of all-cause death, new-onset CHF beginning >24 hours post-PCI and within the duration of the index hospitalization, and CHF re-hospitalization was also determined through 30±7 days and 6±1.5 months post-PCI. Safety endpoints included treatment emergent adverse events (TEAE). The pharmacokinetic profile of D-Arg-2′6′-Dmt-Lys-Phe-NH2 was determined based on the drug serum concentration. […]

mu-opioid receptor = conditions: stated in the description, no data shown; cited from earlier work
[4] = 30 min ischemia, 180 min reperfusion, IV continuous infusion from 10 min of ischemia, n = 10, means with standard errors
[5] = peptide group versus placebo group, p < 0.05

2′,6′-Dmt-D-Arg-Phe-Lys-NH2
Penetration of the plasma membrane [1]: readily penetrates the plasma membrane

D-Arg-2′,6′-Dmt-Lys-Phe-NH2 [D-Arg-2′6′-Dmt-Lys-Phe-NH2]
Myocardial Area (%) IA/AR (infarcted area to area of risk) [2, 4]: 24.7 ± 4.7%
Myocardial Area (%) IA/LV (infarcted area to left ventricular area) [2, 4]: 16.2 ± 3.4%
Infarct size compared to the control ([2]; induced cardiac ischemia, FIGS. 4A-4E): decreased infarct size
IA/AR, % versus placebo [2, 5]: −32 ± 13%
IA/LV, % versus placebo [2, 5]: −24 ± 16%
Myocardial salvage with shorter treatment ([2]; treatment for less than 3 hours after reperfusion, i.e., 30 min, data not shown): comparable myocardial salvage
Proportion of complete or partial ST segment resolution ([3]; 24 hours post-PCI, hypertensive subjects, control 88.2%, p=0.05): 100%
Mean infarct volume on cardiac MRI ([3]; day 4±1, 0.05 mg/kg/hr IV, control 52.6±30.2, p=0.03): 35.8 ± 22.8 mL
Mean left ventricle (LV) mass ([3]; hypertensive subjects, 0.05 mg/kg/hr IV, control 162.2±52.4, p=0.08): 141.5±53.2 grams
New onset CHF during the first 8 hours post-PCI ([3]; hypertensive subjects, control 11 incidents): 5 incidents
New onset CHF <24 hours post-PCI ([3]; hypertensive subjects, control 15 incidents): 8 incidents
Myocardial edema on cardiac MRI ([3]; hypertensive subjects, control 60.9±20.5, p=0.053): 48.9±22.0
Mu-opioid receptor agonist activity (mu-opioid receptor): does not have mu-opioid receptor agonist activity

F[dR]FK-NH2
Mu-opioid receptor agonist activity (mu-opioid receptor): does not have mu-opioid receptor agonist activity

Tyr-D-Arg-Phe-Lys-NH2
Mu-opioid receptor agonist activity (mu-opioid receptor): has mu-opioid receptor agonist activity
